# According to patent publication US20170318812A1, “Plant and Crop Growth Regulating/Biostimulant Formulations and Methods of Use” (Arysta Lifescience North America, LLC, priority 2014, published 2017):
# “And” between values parts separate entries of the source, which are not always exact repeats. Identical values can stand only once.
# Legend:
# [1] = tested on: SORVU Sorghum bicolor (Grain sorghum); assay: Ipfencarbazone biostimulant effect, early post emergence foliar application, greenhouse pots, plant height: sorghum; assay type: in vivo; conditions: SORVU DKB 590
# Source text: (§1) The original objective of this Example was to evaluate the herbicidal effect of ipfencarbazone when applied as a post emergent treatment to a range of selected crops and weeds. Unexpectedly, crop plant growth stimulation was observed. The actual species of weeds and crops are listed in the summary data tabulated below and in FIGS. 1-13. By convention each plant species has a Bayer code (5-letter name) with the scientific name for the plant referenced in FIGS. 1-13. In each Figure, each tray contains the same configuration of weeds and/or crops. In each Figure there is one replication of each treatment (six treatments in total). The top three photographs in each Figure show the Bayer Codes and bottom three photographs are aligned with the top three facilitating viewing of the same plant species. Throughout the Examples various abbreviations as conventional shorthand notation and will be appreciated by those skilled in the art. Some exemplary abbreviations include, “CV”=Co-efficient of Variation,” “LSD”=Least Significant Difference” (G/L (gram per L) AND GA/L (gram of active ingredient per L); “SC”=suspension concentrate formulation. The diluent in all treatments was water. By convention factors that are identical in all treatments (e.g. diluent and surfactant) are not listed in each treatment.
# (§2) Methods: The indicated size pots (see Tables below) are filled with a specific soil, the soil properties being indicated below. The referenced crops and weeds are planted by hand in each pot. […] The experiments include six treatments each replicated three times on each crop/weed species. At a specific time after emergence each crop and weed species was treated with ipfencarbazone plus a non-ionic surfactant (NIS). In the present Example, the surfactant employed was ENERGIC™ (non-ionic surfactant). The application timing is indicated in each of the Tables (1 or 2 leaf stage) below. Ipfencarbazone plus surfactant was diluted in water and applied at a rate equivalent to about 250 L/ha. Ipfencarbazone was applied using a track sprayer. After treatment, the pots were randomized in a greenhouse. At each assessment (indicated by “days after treatment” or DAT) the height of each plant was measured. The letters next to each mean indicate the level of statistical significance.
# (§3) Replications: 3, Untreated treatments: 1, Design: Randomized Complete Block (RCB), Treatment units: Treated ‘Plot’ experimental unit size, Dry Form. Unit: %, Treated ‘Plot’ experimental unit size Width: 1 meter, Treated ‘Plot’ experimental unit size Length: 1.4 meters, Application volume: 250 L/ha, Mix size: 0.15 liters, […]
# [2] = tested on: GLXMA Glycine max (Soybean); assay: Ipfencarbazone biostimulant effect, early post emergence foliar application, greenhouse pots, plant height: soybean; assay type: in vivo; conditions: for HEIGHT, percent of untreated check (APoC) / HEIGHT, treatment mean / HEIGHT, single plots (replicates): GLXMA BMXPOTENCIA; for Plant HEIGHT, Mean / Plant HEIGHT, single plots: Soybean BMXPOTENCIA
# Source text: as §1, §2, §3
# [3] = 28 DA-A, 62.5 g ai/ha + Energic NIS 0.2 % v/v
# [4] = 28 DA-A, 125 g ai/ha + Energic NIS 0.2 % v/v
# [5] = 28 DA-A, 250 g ai/ha + Energic NIS 0.2 % v/v
# [6] = 28 DA-A, 1000 g ai/ha + Energic NIS 0.2 % v/v
smiles,measurement,setting,value
"CC(C)N(C(=O)n1cnn(-c2ccc(Cl)cc2Cl)c1=O)c1ccc(F)cc1F [ARY-0572-001, ipfencarbazone]","HEIGHT, percent of untreated check (APoC)","[1]; 250 g ai/ha, 15 DA-A",(252.1%)
same,"HEIGHT, treatment mean","[1]; 250 g ai/ha, 15 DA-A",61.3 a cm
same,"HEIGHT, percent of untreated check (APoC)","[1]; 250 g ai/ha, 28 DA-A",(355.0%)
same,"HEIGHT, treatment mean","[1]; 250 g ai/ha, 28 DA-A",101.8 a cm and 101.8 cm
same,"HEIGHT, single plots (replicates)","[1]; 250 g ai/ha, 28 DA-A, plots 104, 201, 306",101.3 cm and 104.0 cm and 100.0 cm
same,"HEIGHT, percent of untreated check (APoC)","[1]; 500 g ai/ha, 15 DA-A",(248.2%)
same,"HEIGHT, treatment mean","[1]; 500 g ai/ha, 15 DA-A",60.4 a cm
same,"HEIGHT, percent of untreated check (APoC)","[1]; 500 g ai/ha, 28 DA-A",(266.7%)
same,"HEIGHT, treatment mean","[1]; 500 g ai/ha, 28 DA-A",76.4 a cm and 76.4 cm
same,"HEIGHT, single plots (replicates)","[1]; 500 g ai/ha, 28 DA-A, plots 105, 202, 301",44.7 cm and 89.7 cm and 95.0 cm
same,"HEIGHT, percent of untreated check (APoC)","[1]; 1000 g ai/ha, 15 DA-A",(93.2%)
same,"HEIGHT, treatment mean","[1]; 1000 g ai/ha, 15 DA-A",22.7 b cm
same,"HEIGHT, percent of untreated check (APoC)","[1]; 1000 g ai/ha, 28 DA-A",(123.6%)
same,"HEIGHT, treatment mean","[1]; 1000 g ai/ha, 28 DA-A",35.4 b cm and 35.4 cm
same,"HEIGHT, single plots (replicates)","[1]; 1000 g ai/ha, 28 DA-A, plots 106, 203, 304",75.3 cm and 9.3 cm and 21.7 cm
same,"HEIGHT, percent of untreated check (APoC)","[2]; 62.5 g ai/ha, 15 DA-A",(113.4%)
same,"HEIGHT, treatment mean","[2]; 62.5 g ai/ha, 15 DA-A",15.0 a cm and 15.0 cm
same,"HEIGHT, single plots (replicates)","[2]; 62.5 g ai/ha, 15 DA-A, plots 102, 205, 302",15.3 cm and 14.8 cm (2×)
same,"HEIGHT, percent of untreated check (APoC)","[2]; 62.5 g ai/ha, 28 DA-A",(146.3%)
same,"HEIGHT, treatment mean","[2]; 62.5 g ai/ha, 28 DA-A",30.6a cm
same,"HEIGHT, percent of untreated check (APoC)","[2]; 125 g ai/ha, 15 DA-A",(84.9%)
same,"HEIGHT, treatment mean","[2]; 125 g ai/ha, 15 DA-A",11.2 abc cm and 11.2 cm
same,"HEIGHT, single plots (replicates)","[2]; 125 g ai/ha, 15 DA-A, plots 103, 206, 305",6.2 cm and 13.5 cm and 14.0 cm
same,"HEIGHT, percent of untreated check (APoC)","[2]; 125 g ai/ha, 28 DA-A",(113.8%)
same,"HEIGHT, treatment mean","[2]; 125 g ai/ha, 28 DA-A",23.8 ab cm
same,"HEIGHT, percent of untreated check (APoC)","[2]; 250 g ai/ha, 15 DA-A",(71.8%)
same,"HEIGHT, treatment mean","[2]; 250 g ai/ha, 15 DA-A",9.5 bcd cm and 9.5 cm
same,"HEIGHT, single plots (replicates)","[2]; 250 g ai/ha, 15 DA-A, plots 104, 201, 306",8.3 cm and 10.8 cm and 9.3 cm
same,"HEIGHT, percent of untreated check (APoC)","[2]; 250 g ai/ha, 28 DA-A",(87.8%)
same,"HEIGHT, treatment mean","[2]; 250 g ai/ha, 28 DA-A",18.3 bc cm
same,"HEIGHT, percent of untreated check (APoC)","[2]; 500 g ai/ha, 15 DA-A",(45.4%)
same,"HEIGHT, treatment mean","[2]; 500 g ai/ha, 15 DA-A",6.0 d cm and 6.0 cm
same,"HEIGHT, single plots (replicates)","[2]; 500 g ai/ha, 15 DA-A, plots 105, 202, 301",8.0 cm and 1.3 cm and 8.7 cm
same,"HEIGHT, percent of untreated check (APoC)","[2]; 500 g ai/ha, 28 DA-A",(63.3%)
same,"HEIGHT, treatment mean","[2]; 500 g ai/ha, 28 DA-A",13.2 c cm
same,"HEIGHT, percent of untreated check (APoC)","[2]; 1000 g ai/ha, 15 DA-A",(65.5%)
same,"HEIGHT, treatment mean","[2]; 1000 g ai/ha, 15 DA-A",8.7 cd cm and 8.7 cm
same,"HEIGHT, single plots (replicates)","[2]; 1000 g ai/ha, 15 DA-A, plots 106, 203, 304",6.7 cm and 10.0 cm and 9.3 cm
same,"HEIGHT, percent of untreated check (APoC)","[2]; 1000 g ai/ha, 28 DA-A",(71.3%)
same,"HEIGHT, treatment mean","[2]; 1000 g ai/ha, 28 DA-A",14.9 bc cm
same,"Plant HEIGHT, Mean",[2]; [3],30.6 cm
same,"Plant HEIGHT, single plots",[2]; [3],32.7 cm and 29.3 cm and 29.7 cm
same,"Plant HEIGHT, Mean",[2]; [4],23.8 cm
same,"Plant HEIGHT, single plots",[2]; [4],20.7 cm and 22.7 cm and 28.0 cm
same,"Plant HEIGHT, Mean",[2]; [5],18.3 cm
same,"Plant HEIGHT, single plots",[2]; [5],20.3 cm and 21.7 cm and 13.0 cm
same,"Plant HEIGHT, Mean","[2]; 28 DA-A, 500 g ai/ha + Energic NIS 0.2 % v/v",13.2 cm
same,"Plant HEIGHT, Mean",[2]; [6],14.9 cm
same,"Plant HEIGHT, single plots",[2]; [6],9.0 cm and 18.0 cm and 17.7 cm
